Results published in ChEMBL document CHEMBL5143733, “Discovery of (E)-3-(3-((2-Cyano-4'-dimethylaminobiphenyl-4-ylmethyl)cyclohexanecarbonylamino)-5-fluorophenyl)acrylic Acid Methyl Ester, an Intestine-Specific, FXR Partial Agonist for the Treatment of Nonalcoholic Steatohepatitis” (J Med Chem, 2022).
pEC50: −log10 of the molar value. Blank lines part the entries; values can stand above or below the compound they belong to. Calls of active or inactive are those of the source. The rule behind the calls is not given here.

Legend:
[1] = target: T1, Bile acid receptor (Homo sapiens) (UniProt Q96RI1); assay: Antagonist activity at human FXR expressed in CHO-K1 FXR cells coexpressed with beta-galactosidase at 10 uM preincubated for 60 mins followed by GW4064 addition and measured after 3 to 16 hrs by PathHunter chemiluminescence based assay relative to control; type: cell-based; set-up: scale not given: the % may be the effect or the level left; conditions: time 4-17 hrs
T1 sequence (whole entry): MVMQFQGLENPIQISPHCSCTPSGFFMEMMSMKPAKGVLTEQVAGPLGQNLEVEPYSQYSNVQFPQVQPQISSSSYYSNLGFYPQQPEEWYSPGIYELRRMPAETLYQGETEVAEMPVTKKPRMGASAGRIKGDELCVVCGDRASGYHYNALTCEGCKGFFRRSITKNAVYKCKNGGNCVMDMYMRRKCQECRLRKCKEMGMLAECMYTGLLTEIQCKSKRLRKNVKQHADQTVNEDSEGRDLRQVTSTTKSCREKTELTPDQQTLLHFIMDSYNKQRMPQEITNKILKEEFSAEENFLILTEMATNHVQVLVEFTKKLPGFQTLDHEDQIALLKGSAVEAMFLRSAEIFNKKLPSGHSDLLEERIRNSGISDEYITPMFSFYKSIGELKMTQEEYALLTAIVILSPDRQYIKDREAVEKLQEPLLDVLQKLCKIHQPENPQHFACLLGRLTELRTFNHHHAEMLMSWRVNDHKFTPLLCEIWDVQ

[2] = target: Retinoic acid receptor alpha (Homo sapiens) (UniProt P10276); assay: Agonist activity at human RAR-alpha expressed in CHO-K1 cells assessed as maximum relative efficacy at 100 uM by PathHunter assay relative to 9-cis-retinoic acid; type: cell-based
[3] = target: Glucocorticoid receptor (Homo sapiens) (UniProt P04150); assay: Agonist activity at human GR expressed in CHO-K1 cells assessed as maximum relative efficacy at 100 uM by PathHunter assay relative to dexamethasone; type: cell-based
[4] = target: Oxysterols receptor LXR-alpha (Homo sapiens) (UniProt Q13133); assay: Agonist activity at human LXR-alpha expressed in CHO-K1 cells assessed as maximum relative efficacy at 100 uM by PathHunter assay relative to TO901317; type: cell-based
[5] = target: Androgen receptor (Homo sapiens) (UniProt P10275); assay: Agonist activity at human AR expressed in CHO-K1 cells assessed as maximum relative efficacy at 100 uM by PathHunter assay relative to 6alpha-fluorotestosterone; type: cell-based
Sequence of Androgen receptor (Homo sapiens) (P10275 whole entry): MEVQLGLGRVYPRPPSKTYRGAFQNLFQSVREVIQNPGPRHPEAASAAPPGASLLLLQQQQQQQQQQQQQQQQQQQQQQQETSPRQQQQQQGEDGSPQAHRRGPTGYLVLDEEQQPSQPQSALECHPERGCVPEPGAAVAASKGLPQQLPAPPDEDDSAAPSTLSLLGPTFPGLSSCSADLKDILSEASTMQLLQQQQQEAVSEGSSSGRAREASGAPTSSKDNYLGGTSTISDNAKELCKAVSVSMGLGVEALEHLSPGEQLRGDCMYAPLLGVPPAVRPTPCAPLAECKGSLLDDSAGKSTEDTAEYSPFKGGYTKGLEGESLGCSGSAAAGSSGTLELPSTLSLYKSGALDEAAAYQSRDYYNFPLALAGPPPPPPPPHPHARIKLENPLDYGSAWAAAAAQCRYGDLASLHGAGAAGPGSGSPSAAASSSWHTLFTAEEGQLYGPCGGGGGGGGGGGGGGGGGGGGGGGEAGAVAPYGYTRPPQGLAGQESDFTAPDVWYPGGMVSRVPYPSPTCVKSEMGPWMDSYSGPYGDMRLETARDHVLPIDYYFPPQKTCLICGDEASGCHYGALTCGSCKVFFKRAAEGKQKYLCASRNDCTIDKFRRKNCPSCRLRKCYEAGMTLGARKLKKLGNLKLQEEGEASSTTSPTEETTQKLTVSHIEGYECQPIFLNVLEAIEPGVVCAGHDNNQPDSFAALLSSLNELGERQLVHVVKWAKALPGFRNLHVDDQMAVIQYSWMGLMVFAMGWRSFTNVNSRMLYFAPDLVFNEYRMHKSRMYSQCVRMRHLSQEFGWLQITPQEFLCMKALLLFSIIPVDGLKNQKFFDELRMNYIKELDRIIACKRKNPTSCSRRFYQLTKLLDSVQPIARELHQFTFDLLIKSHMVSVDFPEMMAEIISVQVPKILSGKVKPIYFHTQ

[6] = target: Thyroid hormone receptor alpha (Homo sapiens) (UniProt P10827); assay: Agonist activity at human THR-alpha expressed in CHO-K1 cells assessed as maximum relative efficacy at 100 uM by PathHunter assay relative to control; type: cell-based
[7] = target: Thyroid hormone receptor beta (Homo sapiens) (UniProt P10828); assay: Agonist activity at human THR-beta expressed in CHO-K1 cells assessed as maximum relative efficacy at 100 uM by PathHunter assay relative to triiodothyronine ine; type: cell-based
Sequence of Thyroid hormone receptor beta (Homo sapiens) (P10828 whole entry): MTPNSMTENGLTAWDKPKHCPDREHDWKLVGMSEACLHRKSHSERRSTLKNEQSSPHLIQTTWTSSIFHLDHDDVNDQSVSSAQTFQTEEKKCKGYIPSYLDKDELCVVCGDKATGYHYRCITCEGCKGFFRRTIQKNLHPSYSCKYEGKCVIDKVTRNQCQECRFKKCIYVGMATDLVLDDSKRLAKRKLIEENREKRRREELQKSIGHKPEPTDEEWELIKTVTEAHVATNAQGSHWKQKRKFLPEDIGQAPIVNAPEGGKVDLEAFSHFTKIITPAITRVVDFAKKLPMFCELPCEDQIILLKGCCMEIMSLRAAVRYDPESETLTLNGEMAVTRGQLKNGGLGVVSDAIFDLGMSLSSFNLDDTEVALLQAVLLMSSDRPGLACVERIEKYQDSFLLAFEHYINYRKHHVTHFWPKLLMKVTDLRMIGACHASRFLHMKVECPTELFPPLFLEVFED

[8] = target: Oxysterols receptor LXR-beta (Homo sapiens) (UniProt P55055); assay: Agonist activity at human LXR-beta expressed in CHO-K1 cells assessed as maximum relative efficacy at 100 uM by PathHunter assay relative to TO901317; type: cell-based
[9] = target: Retinoic acid receptor RXR-beta (Homo sapiens) (UniProt P28702); assay: Agonist activity at human RXR-beta expressed in U2OS cells assessed as maximum relative efficacy at 100 uM by PathHunter assay relative to 9-cis-retinoic acid; type: cell-based
[10] = target: Progesterone receptor (Homo sapiens) (UniProt P06401); assay: Agonist activity at human PR-beta expressed in U2OS cells assessed as maximum relative efficacy at 100 uM by PathHunter assay relative to norgestrel; type: cell-based
Sequence of Progesterone receptor (Homo sapiens) (P06401 whole entry): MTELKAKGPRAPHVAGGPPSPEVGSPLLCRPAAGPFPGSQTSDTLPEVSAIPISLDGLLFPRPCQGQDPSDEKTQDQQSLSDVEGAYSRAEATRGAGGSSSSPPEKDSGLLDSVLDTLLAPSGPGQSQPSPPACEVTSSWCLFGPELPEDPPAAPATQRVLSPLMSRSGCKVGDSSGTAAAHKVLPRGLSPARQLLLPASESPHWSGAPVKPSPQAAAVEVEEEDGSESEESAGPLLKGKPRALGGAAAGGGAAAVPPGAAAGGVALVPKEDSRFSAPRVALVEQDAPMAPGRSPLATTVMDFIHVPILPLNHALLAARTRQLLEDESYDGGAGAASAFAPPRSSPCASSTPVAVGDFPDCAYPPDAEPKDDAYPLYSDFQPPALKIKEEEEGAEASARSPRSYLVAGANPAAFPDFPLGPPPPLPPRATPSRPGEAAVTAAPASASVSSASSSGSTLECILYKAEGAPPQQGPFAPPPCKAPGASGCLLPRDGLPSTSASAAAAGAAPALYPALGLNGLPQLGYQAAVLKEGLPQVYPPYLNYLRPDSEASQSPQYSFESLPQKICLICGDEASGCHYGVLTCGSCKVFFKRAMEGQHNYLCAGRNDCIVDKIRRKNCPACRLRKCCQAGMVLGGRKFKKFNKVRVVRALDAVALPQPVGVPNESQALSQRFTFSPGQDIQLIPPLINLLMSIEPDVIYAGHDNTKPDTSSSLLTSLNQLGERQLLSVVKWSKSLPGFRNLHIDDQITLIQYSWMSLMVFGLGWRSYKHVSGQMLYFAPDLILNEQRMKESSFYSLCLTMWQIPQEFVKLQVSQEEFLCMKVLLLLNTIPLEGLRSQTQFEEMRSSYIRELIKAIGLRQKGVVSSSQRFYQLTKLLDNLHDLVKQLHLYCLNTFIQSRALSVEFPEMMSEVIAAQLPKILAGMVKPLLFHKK

[11] = target: Retinoic acid receptor beta (Homo sapiens) (UniProt P10826); assay: Agonist activity at human RAR-beta expressed in CHO-K1 cells assessed as maximum relative efficacy at 100 uM by PathHunter assay relative to 9-cis-retinoic acid; type: cell-based
Sequence of Retinoic acid receptor beta (Homo sapiens) (P10826 whole entry): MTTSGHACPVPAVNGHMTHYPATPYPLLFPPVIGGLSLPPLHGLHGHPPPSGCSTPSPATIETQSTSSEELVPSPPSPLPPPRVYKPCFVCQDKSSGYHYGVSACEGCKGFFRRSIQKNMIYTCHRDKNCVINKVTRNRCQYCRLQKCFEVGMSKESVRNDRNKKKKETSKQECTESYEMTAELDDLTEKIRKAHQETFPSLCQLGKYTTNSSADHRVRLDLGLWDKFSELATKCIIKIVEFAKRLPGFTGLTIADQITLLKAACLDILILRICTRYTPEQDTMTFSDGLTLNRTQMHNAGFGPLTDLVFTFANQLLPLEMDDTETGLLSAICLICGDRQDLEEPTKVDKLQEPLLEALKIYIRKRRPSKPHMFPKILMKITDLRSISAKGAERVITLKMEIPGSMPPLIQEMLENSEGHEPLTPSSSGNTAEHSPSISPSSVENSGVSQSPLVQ

[12] = target: Mineralocorticoid receptor (Homo sapiens) (UniProt P08235); assay: Agonist activity at human MR expressed in CHO-K1 cells assessed as maximum relative efficacy at 100 uM by PathHunter assay relative to aldosterone; type: cell-based
Sequence of Mineralocorticoid receptor (Homo sapiens) (P08235 whole entry): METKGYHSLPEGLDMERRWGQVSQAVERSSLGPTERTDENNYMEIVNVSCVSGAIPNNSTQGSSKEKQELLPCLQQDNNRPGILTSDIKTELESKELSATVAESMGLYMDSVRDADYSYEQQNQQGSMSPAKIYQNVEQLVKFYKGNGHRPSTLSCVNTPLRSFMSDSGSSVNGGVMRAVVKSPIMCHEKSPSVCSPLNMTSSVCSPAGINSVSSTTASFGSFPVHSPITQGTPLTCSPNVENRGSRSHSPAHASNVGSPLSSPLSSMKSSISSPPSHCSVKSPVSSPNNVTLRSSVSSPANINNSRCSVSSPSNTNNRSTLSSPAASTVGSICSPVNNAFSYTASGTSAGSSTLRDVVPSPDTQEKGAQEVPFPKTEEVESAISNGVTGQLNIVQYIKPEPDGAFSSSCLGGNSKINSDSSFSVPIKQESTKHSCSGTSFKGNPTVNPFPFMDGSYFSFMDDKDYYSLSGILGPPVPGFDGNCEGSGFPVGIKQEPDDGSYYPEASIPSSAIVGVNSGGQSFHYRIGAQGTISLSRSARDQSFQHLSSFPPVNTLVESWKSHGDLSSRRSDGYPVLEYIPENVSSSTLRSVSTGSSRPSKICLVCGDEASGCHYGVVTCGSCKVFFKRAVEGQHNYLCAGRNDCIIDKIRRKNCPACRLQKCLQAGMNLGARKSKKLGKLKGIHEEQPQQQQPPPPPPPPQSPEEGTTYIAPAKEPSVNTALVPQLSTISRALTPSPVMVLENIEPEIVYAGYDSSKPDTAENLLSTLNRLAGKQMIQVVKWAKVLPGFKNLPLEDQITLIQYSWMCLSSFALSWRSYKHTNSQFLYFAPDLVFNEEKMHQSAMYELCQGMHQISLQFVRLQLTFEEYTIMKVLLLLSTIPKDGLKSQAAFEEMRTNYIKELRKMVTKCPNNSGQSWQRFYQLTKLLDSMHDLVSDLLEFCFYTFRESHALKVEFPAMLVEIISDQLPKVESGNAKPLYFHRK

[13] = target: Estrogen receptor (Homo sapiens) (UniProt P03372); assay: Agonist activity at human ERalpha expressed in CHO-K1 cells assessed as maximum relative efficacy at 100 uM by PathHunter assay relative to 17-beta-estradiol; type: cell-based
Sequence of Estrogen receptor (Homo sapiens) (P03372 whole entry): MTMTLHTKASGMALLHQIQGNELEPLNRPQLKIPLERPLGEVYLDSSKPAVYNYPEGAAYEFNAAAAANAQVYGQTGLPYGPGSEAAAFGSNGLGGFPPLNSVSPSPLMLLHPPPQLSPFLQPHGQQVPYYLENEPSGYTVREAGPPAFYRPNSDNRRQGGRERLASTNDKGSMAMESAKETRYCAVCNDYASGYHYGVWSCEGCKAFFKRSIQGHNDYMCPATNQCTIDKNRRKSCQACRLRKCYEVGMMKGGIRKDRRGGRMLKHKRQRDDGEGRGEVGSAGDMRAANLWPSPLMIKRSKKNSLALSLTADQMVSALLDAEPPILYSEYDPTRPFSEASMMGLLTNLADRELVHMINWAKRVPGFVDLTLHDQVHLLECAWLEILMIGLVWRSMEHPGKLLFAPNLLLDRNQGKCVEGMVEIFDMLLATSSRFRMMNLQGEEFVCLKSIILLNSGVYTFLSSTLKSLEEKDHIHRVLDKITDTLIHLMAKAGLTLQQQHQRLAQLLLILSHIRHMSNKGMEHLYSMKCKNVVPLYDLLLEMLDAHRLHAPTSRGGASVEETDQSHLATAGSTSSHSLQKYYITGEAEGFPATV

[14] = target: Progesterone receptor (Homo sapiens) (UniProt P06401); assay: Agonist activity at human PR-alpha expressed in U2OS cells assessed as maximum relative efficacy at 100 uM by PathHunter assay relative to norgestrel; type: cell-based
[15] = target: Peroxisome proliferator-activated receptor alpha (Homo sapiens) (UniProt Q07869); assay: Agonist activity at human PPAR-alpha expressed in CHO-K1 cells assessed as maximum relative efficacy at 100 uM by PathHunter assay relative to GW7647; type: cell-based
[16] = target: Peroxisome proliferator-activated receptor gamma (Homo sapiens) (UniProt P37231); assay: Agonist activity at human PPAR-gamma expressed in CHO-K1 cells assessed as maximum relative efficacy at 100 uM by PathHunter assay relative to troglitazone; type: cell-based
Sequence of Peroxisome proliferator-activated receptor gamma (Homo sapiens) (P37231 whole entry): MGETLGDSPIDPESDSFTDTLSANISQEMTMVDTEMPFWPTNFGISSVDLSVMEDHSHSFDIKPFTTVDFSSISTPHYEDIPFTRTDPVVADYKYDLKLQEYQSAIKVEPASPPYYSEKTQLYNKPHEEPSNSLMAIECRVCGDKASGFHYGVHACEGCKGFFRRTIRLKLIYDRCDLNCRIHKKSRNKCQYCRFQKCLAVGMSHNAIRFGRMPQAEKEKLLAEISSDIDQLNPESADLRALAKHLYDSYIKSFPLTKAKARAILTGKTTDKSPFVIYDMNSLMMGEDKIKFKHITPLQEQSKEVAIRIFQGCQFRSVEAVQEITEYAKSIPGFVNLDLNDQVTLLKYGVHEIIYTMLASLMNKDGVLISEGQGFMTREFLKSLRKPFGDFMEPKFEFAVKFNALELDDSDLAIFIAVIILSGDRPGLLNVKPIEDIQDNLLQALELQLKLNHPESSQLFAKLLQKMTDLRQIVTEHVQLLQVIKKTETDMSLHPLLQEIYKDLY

[17] = target: Retinoic acid receptor RXR-alpha (Homo sapiens) (UniProt P19793); assay: Agonist activity at human RXR-alpha expressed in U2OS cells assessed as maximum relative efficacy at 100 uM by PathHunter assay relative to 9-cis-retinoic acid; type: cell-based
[18] = target: Peroxisome proliferator-activated receptor delta (Homo sapiens) (UniProt Q03181); assay: Agonist activity at human PPAR-delta expressed in CHO-K1 cells assessed as maximum relative efficacy at 100 uM by PathHunter assay relative to L-165,041; type: cell-based
[19] = target: T1, Bile acid receptor (Homo sapiens); assay: Agonist activity at human FXR transfected in CHO-K1 cells coexpressed with beta-galactosidase at 10 uM incubated for 3 to 16 hrs by PathHunter chemiluminescence based assay relative to control; type: cell-based; conditions: time 3-16 hrs
[20] = Half life in Sprague-Dawley rat at 5 mg/kg, iv measured up to 24 hrs by HPLC analysis; type: ADME, organism-based; conditions: in vivo
[21] = Stability in Sprague-Dawley rat plasma at 80 mg/kg, po measured after 3 hrs by RP-HPLC analysis; type: ADME, organism-based; conditions: in vivo
[22] = AUClast in Sprague-Dawley rat at 5 mg/kg, iv measured up to 24 hrs by HPLC analysis; type: ADME, organism-based; set-up: time < 24 hrs, dose 5 mg/kg, route iv; conditions: Sprague-Dawley, in vivo
[23] = Volume of distribution at steady state in Sprague-Dawley rat at 5 mg/kg, iv measured up to 24 hrs by HPLC analysis; type: ADME, organism-based; conditions: in vivo, read-out: Vdss
[24] = target: T1, Bile acid receptor (Homo sapiens); assay: Antagonist activity at human FXR expressed in CHO-K1 FXR cells coexpressed with beta-galactosidase at 1.1 uM preincubated for 60 mins followed by GW4064 addition and measured after 3 to 16 hrs by PathHunter chemiluminescence based assay relative to control; type: cell-based; set-up: scale not given: the % may be the effect or the level left; conditions: time 4-17 hrs
[25] = target: T1, Bile acid receptor (Homo sapiens); assay: Antagonist activity at human FXR expressed in CHO-K1 FXR cells coexpressed with beta-galactosidase at 3.3 uM preincubated for 60 mins followed by GW4064 addition and measured after 3 to 16 hrs by PathHunter chemiluminescence based assay relative to control; type: cell-based; set-up: scale not given: the % may be the effect or the level left; conditions: time 4-17 hrs
[26] = Clearance in Sprague-Dawley rat at 5 mg/kg, iv measured up to 24 hrs by HPLC analysis; type: ADME, organism-based; conditions: in vivo
Bile acid receptor = target: T2, Bile acid receptor (Homo sapiens, UniProt Q96RI1)
T2 sequence (Q96RI1 whole entry): T1 sequence (whole entry)
Description: Agonist activity at human FXR transfected in CHO-K1 cells coexpressed with beta-galactosidase incubated for 3 to 16 hrs by PathHunter chemiluminescence based assay

[27] = Toxicity in CDAHFD-induced nonalcoholic steatohepatitis C57BL/6J mouse model assessed as increase in liver wet weight at 80 mg/kg, po administered daily for 4 weeks […]; type: organism-based; conditions: in vivo, 672 h
[28] = target: T3, Bile acid receptor (Mus musculus) (UniProt Q60641); assay: In vivo activation of FXR in CDAHFD-induced nonalcoholic steatohepatitis C57BL/6J mouse model assessed as induction of IBABP gene expression at 80 mg/kg, po administered daily for 4 weeks; type: functional, organism-based
T3 sequence (whole entry): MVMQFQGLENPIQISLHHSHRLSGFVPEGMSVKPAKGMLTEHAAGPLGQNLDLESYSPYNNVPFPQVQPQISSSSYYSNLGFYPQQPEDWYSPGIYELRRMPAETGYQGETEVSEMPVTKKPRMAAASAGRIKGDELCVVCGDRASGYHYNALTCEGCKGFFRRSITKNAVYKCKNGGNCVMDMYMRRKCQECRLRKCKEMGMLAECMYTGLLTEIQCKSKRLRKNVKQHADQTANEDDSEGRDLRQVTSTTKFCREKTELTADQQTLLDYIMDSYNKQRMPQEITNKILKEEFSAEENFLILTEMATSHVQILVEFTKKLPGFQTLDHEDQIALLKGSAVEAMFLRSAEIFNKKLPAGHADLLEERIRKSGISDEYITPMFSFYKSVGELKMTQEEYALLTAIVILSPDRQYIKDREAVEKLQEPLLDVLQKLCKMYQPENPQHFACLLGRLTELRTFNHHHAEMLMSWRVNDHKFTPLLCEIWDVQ

[29] = target: T3, Bile acid receptor (Mus musculus); assay: In vivo activation of FXR in CDAHFD-induced nonalcoholic steatohepatitis C57BL/6J mouse model assessed as induction of OST-alpha gene expression at 80 mg/kg, po administered daily for 4 weeks; type: functional, organism-based
[30] = target: T3, Bile acid receptor (Mus musculus); assay: In vivo activation of FXR in CDAHFD-induced nonalcoholic steatohepatitis C57BL/6J mouse model assessed as induction of SHP gene expression at 80 mg/kg, po administered daily for 4 weeks; type: functional, organism-based
[31] = Toxicity in CDAHFD-induced nonalcoholic steatohepatitis C57BL/6J mouse model assessed as change in amount of food intake at 80 mg/kg, po administered daily for 4 weeks; type: organism-based; conditions: in vivo, 672 h
[32] = target: T3, Bile acid receptor (Mus musculus); assay: In vivo activation of FXR in […]-induced nonalcoholic steatohepatitis C57BL/6J mouse model assessed as improved glucose tolerance measured up to 120 mins by glucose tolerance test; type: functional
[33] = target: T3, Bile acid receptor (Mus musculus); assay: In vivo activation of FXR in CDAHFD-induced nonalcoholic steatohepatitis C57BL/6J mouse model assessed as reduction in liver fibrosis at 80 mg/kg, po administered daily for 4 weeks by picrosirius red staining method; type: functional, organism-based
[34] = target: T3, Bile acid receptor (Mus musculus); assay: In vivo activation of FXR in CDAHFD-induced nonalcoholic steatohepatitis C57BL/6J mouse model assessed as induction of SHP gene expression in liver at 80 mg/kg, po administered daily for 4 weeks; type: functional, organism-based
[35] = Toxicity in CDAHFD-induced nonalcoholic steatohepatitis C57BL/6J mouse model assessed as change in body weight at 80 mg/kg, po administered daily for 4 weeks; type: organism-based; conditions: in vivo, 672 h
[36] = target: T3, Bile acid receptor (Mus musculus); assay: In vivo activation of FXR in CDAHFD-induced nonalcoholic steatohepatitis C57BL/6J mouse model assessed as induction of FGF15 gene expression at 80 mg/kg, po administered daily for 4 weeks; type: functional, organism-based

- Emax [2]: -3%
- Emax [3]: 0%
- Emax [4]: 0%
- Emax [5]: -2%
- Emax [6]: -1%
- Emax [7]: 1%
- Emax [8]: 3%
- Emax [9]: -4%
- Emax [10]: 0%
- Emax [11]: -11%
- Emax [12]: 0%
- Emax [13]: 1%
- Emax [14]: -1%
- Emax [15]: 0%
- Emax [16]: 2%
- Emax [17]: -2%
- Emax [18]: -3%
SMILES: COC(=O)/C=C/c1cccc(N(Cc2ccc(-c3ccc(N(C)C)cc3)c(C#N)c2)C(=O)C2CCCCC2)c1

- Activity [19]: 0%
- half-life [20]: 14.4 min
- Stability [21]: Unstable
- AUC(0-t) at 24 h [22]: 1200 ng·h/mL
- Vd [23]: 1.4 L/kg
- Activity [24]: 6%
- Activity [1]: 26%
- Activity [25]: 7%
- clearance [26]: 70 mL/min/kg
SMILES: CN(C)c1ccc(-c2ccc(CN(C(=O)C3CCCCC3)c3cc(F)cc(/C=C/C(=O)O)c3)cc2C#N)cc1

- pEC50 (Bile acid receptor): 6.05
SMILES: CC(C)OC(=O)/C=C/c1cccc(N(Cc2ccc(-c3ccc(N(C)C)cc3)c(C#N)c2)C(=O)C2CCCCC2)c1F

- Activity [28]: Active
- Activity [29]: Active
- Activity [30]: Active
- Activity [33]: Active
- Activity [34]: Active
- Activity [36]: Active
SMILES: COC(=O)/C=C/c1cccc(N(Cc2ccc(-c3ccc(N(C)C)cc3)cc2)C(=O)C2CCCCC2)c1 [FEXARAMINE]
- Activity [27]: Non-Toxic
- Activity [31]: Non-Toxic
- Activity [32]: Active
- Activity [35]: Non-Toxic

Further lines, the compound ahead of its results:

SMILES: COc1cccc(Cn2cc(C(=O)Nc3ccc(C)c(S(=O)(=O)N4CCOCC4)c3)c(-c3ccc(C)cc3)n2)c1
- Activity ([1]; filed as antagonist): 96%

SMILES: COC(=O)/C=C/c1cccc(N(Cc2ccc3c(c2)CCc2cc(N(C)C)ccc2-3)C(=O)C2CCCCC2)c1
- pEC50 (Bile acid receptor): < 5.00

SMILES: CN(C)c1ccc(-c2ccc(CN(C(=O)C3CCCCC3)c3cccc(/C=C/C(=O)OCF)c3)cc2C#N)cc1
- pEC50 (Bile acid receptor): 5.59

SMILES: COC(=O)/C=C/c1cccc(N(Cc2ccc3c(ccc4cc(N(C)C)ccc43)c2)C(=O)C2CCCCC2)c1
- pEC50 (Bile acid receptor): < 5.00
